Reference: patent US20190177771A1, “PNA PROBE FOR DISCRIMINATION OF QUINOLONE ANTIBIOTIC RESISTANT BACTERIA AND METHOD FOR DISCRIMINATION OF ANTIBIOTIC RESISTANT BACTERIA USING THE SAME” (priority 2017, published 2019)
≈ marks a conversion by molar mass, not a printed value.

How the values were obtained:
V. harveyi = assay: MIC measurement of V. harveyi strains for quinolone antibiotics; type: cell-based, Vibrio harveyi; conditions: for MIC: Vibrio harveyi
Protocol: (§1) Using S. parauberis, E. tarda, and V. harveyi samples stored in the National Institute of Fisheries Science, MIC values were measured.

E. tarda = assay: MIC measurement of E. tarda strains for quinolone antibiotics; type: cell-based; conditions: Edwardsiella tarda
Protocol: as §1

S. parauberis = assay: MIC measurement of S. parauberis strains for quinolone antibiotic; type: cell-based; conditions: Streptococcus parauberis
Protocol: as §1

[1] = V. harveyi strain FP4541, gyrA Ile83
[2] = V. harveyi strain FP3023, gyrA Ser83
[3] = V. harveyi strain FP3031, gyrA Ser83
[4] = V. harveyi strain FP3457, gyrA Ser83
[5] = V. harveyi strain FP7021, gyrA Ser83
[6] = V. harveyi strain FP8045, gyrA Ser83
[7] = E. tarda strain FP2074, gyrA Arg83
[8] = E. tarda strain FP2130, gyrA Arg83
[9] = E. tarda strain FP2240, gyrA Ser83
[10] = E. tarda strain FP2243, gyrA Arg83
[11] = E. tarda strain FP3071, gyrA Arg83
[12] = E. tarda strain FP3139, gyrA Ile83
[13] = E. tarda strain FPa4445, gyrA Arg83

SMILES	susceptibility of the strain to the antibiotic, in words (V. harveyi; [1])	MIC (V. harveyi; [2])	MIC (V. harveyi; [3])	MIC (V. harveyi; [4])	MIC (V. harveyi; [1])	MIC (V. harveyi; [5])	MIC (V. harveyi; [6])	MIC (E. tarda; [7])	MIC (E. tarda; [8])	MIC (E. tarda; [9])	MIC (E. tarda; [10])	MIC (E. tarda; [11])	MIC (E. tarda; [12])	MIC (E. tarda; [13])	MIC (S. parauberis; S. parauberis strain FP3059, gyrA Ser81)	MIC (S. parauberis; S. parauberis strain FP3227, gyrA Ser81)	MIC (S. parauberis; S. parauberis strain FP4029, gyrA Ser81)	MIC (S. parauberis; S. parauberis strain FP4031, gyrA Ser81)	MIC (S. parauberis; S. parauberis strain FP5227, gyrA Ser81)	MIC (S. parauberis; S. parauberis strain FPa4533, gyrA Leu81)
CC1CCc2cc(F)cc3c(=O)c(C(=O)O)cn1c23 (centres unmarked) [Flumequine]	resistance	1 µg/mL (≈ 3.83 µM)	2 µg/mL (≈ 7.66 µM)	2 µg/mL (≈ 7.66 µM)	16 µg/mL (≈ 61.2 µM)	1 µg/mL (≈ 3.83 µM)	2 µg/mL (≈ 7.66 µM)	8 µg/mL (≈ 30.6 µM)	64 µg/mL (≈ 245 µM)	1 µg/mL (≈ 3.83 µM)	32 µg/mL (≈ 122 µM)	16 µg/mL (≈ 61.2 µM)	≥ 512 µg/mL	32 µg/mL (≈ 122 µM)						
O=C(O)c1cn(C2CC2)c2cc(N3CCNCC3)c(F)cc2c1=O [Cipfloxacin, ciprofloxacin]								0.13 µg/mL (≈ 0.392 µM)	1 µg/mL (≈ 3.02 µM)	< 0.06 µg/mL	0.5 µg/mL (≈ 1.51 µM)	0.25 µg/mL (≈ 0.754 µM)	4 µg/mL (≈ 12.1 µM)	2 µg/mL (≈ 6.04 µM)	0.13 µg/mL (≈ 0.392 µM)	1 µg/mL (≈ 3.02 µM)	0.5 µg/mL (≈ 1.51 µM)	0.25 µg/mL (≈ 0.754 µM)	0.06 µg/mL (≈ 0.181 µM)	2 µg/mL (≈ 6.04 µM)
CCn1cc(C(=O)O)c(=O)c2cc3c(cc21)OCO3 [Oxolinic acid]	resistance	1 µg/mL (≈ 3.83 µM)	1 µg/mL (≈ 3.83 µM)	2 µg/mL (≈ 7.66 µM)	8 µg/mL (≈ 30.6 µM)	1 µg/mL (≈ 3.83 µM)	1 µg/mL (≈ 3.83 µM)	4 µg/mL (≈ 15.3 µM)	64 µg/mL (≈ 245 µM)	< 0.25 µg/mL	16 µg/mL (≈ 61.2 µM)	8 µg/mL (≈ 30.6 µM)	256 µg/mL (≈ 980 µM)	8 µg/mL (≈ 30.6 µM)						
